Test system: human iPSC
Assay: simultaneous multiplex mThy1 and mCD147 gene replacement in hiPSC
Type: cell-based
Excerpt: FIGS. 5A-B. Bcl-2 overexpression enables double homozygous targeted gene replacement in human iPSC. FIG. 5A. Mouse Thy1 gene targeting scheme (left). Mouse CD147 gene targeting scheme (right): Two sgRNAs target human BSG (CD147) within intron 1 (Left) or after the polyadenylation site (Right). The mouse CD147 targeting vector plasmid contains mCD147 coding exons 2-7, flanked by hCD147 homology arms outside the sgRNA sites—coding exon 1 (which encodes the signal peptide) is retained but the sgRNA sites are disrupted. FIG. 5B. Plain human iPSC were transfected with 1 μg each of the mThy1 and mCD147 targeting vectors together with a total of 2 μg “Cas9 only sgRNA” or “Cas9 Bcl-2 sgRNA” expression plasmid. Cells were transfected with the following sgRNA combinations: Thy1 Left and CD147 Left, Thy1 Right and CD147 Right, all four Thy1 and CD147 sgRNAs, or Negative sgRNA #1. Nine days later, cells were analyzed by flow cytometry for mThy1, hThy1, mCD147, and hCD147 expression. Upper two plots show the percent of Thy1 or CD147 gene replacement as gated on all live single iPSC. Lower four plots show the percent of CD147 gene replacement as gated on the Thy1 gene targeting quadrants. Results are representative of four independent experiments.
The U6 promoter-sgRNA (for each sgRNA sequence) was cloned into the EF1α promoter-Cas9 nuclease or EF1α promoter-Cas9 nuclease-IRES-Bcl-2 expression plasmids to form the “Cas9 only sgRNA” or “Cas9 Bcl-2 sgRNA” plasmids used in Examples 6 and 7.
Previously, low gene targeting frequencies in hiPSC could be overcome by clever enrichment or selection schemes. However, for simultaneous multiplex gene targeting, a higher absolute frequency is needed. […] Plain hiPSC were transfected with both mThy1 and mCD147 targeting vectors together with the “Cas9 only sgRNA” or “Cas9 Bcl-2 sgRNA” plasmids. Combinations of both Left sgRNAs, both Right sgRNAs, all four sgRNAs, or a negative control sgRNA were used. Cultures were then analyzed by flow cytometry for hThy1, mThy1, hCD147, and mCD147 expression. […] When cell populations were gated on homozygous mThy1 gene replacement (red) and then analyzed for mCD147 gene replacement, we found an enrichment of mCD147 events, rather than an independent assortment of gene editing outcomes. Likewise, when all four sgRNAs were transfected, the mThy1^−hThy1^− double negative population (blue) contained an enriched proportion of mCD147^−hCD147^− cells. Even considering an overall transfection rate of 60-70%, these enrichments indicate that hiPSC may be poised for either HR or NHEJ at various periods. With Bcl-2, the frequency of HR-mediated double homozygous gene replacements (mThy1^+hThy1^− mCD147^+hCD147^−) increased by an order of magnitude (Left sgRNAs: from 0.02% to 0.16%; Right sgRNAs: from 0.01% to 0.37%). […]

In the case of “Bcl-2: B cell lymphoma 2 protein, anti-apoptotic, overexpressed from lentivirus or Cas9 plasmid”, the “frequency of HR-mediated double homozygous gene replacements (mThy1+hThy1- mCD147+hCD147-)” value (Left sgRNAs, with Bcl-2 (from 0.02% without)) is reported as 0.16%, the “frequency of HR-mediated double homozygous gene replacements (mThy1+hThy1- mCD147+hCD147-)” value (Right sgRNAs, with Bcl-2 (from 0.01% without)) is reported as 0.37% and the “NHEJ-mediated quadruple-negative deletions (mThy1-hThy1- mCD147-hCD147-)” value (all four sgRNAs, with Bcl-2 (from 0.7% without)) is reported as 1.1%. For the same substance, the gene editing frequencies (multiplex mThy1 and mCD147 targeting, every sgRNA combination) was “improved gene editing frequencies”.

Source: patent publication US11459586B2, “Methods for increasing efficiency of nuclease-mediated gene editing in stem cells” (President and Fellows of Harvard College, priority 2016, dated 2022)
